Source: BindingDB's records for doi:10.1016/s0960-894x(02)00302-5 (Wyeth Research, 2002)

Target: Proto-oncogene tyrosine-protein kinase Src (Homo sapiens, UniProt P12931)
Assay: Kinase inhibition Assay
Conditions: pH 7.5; 30 °C
Description: Src kinase activity was measured in an ELISA format. IC50 is the inhibitor concentration which inhibits 50% of kinase activity that catalyzes the transfer of the terminal phosphate from ATP to the substrate.

Proto-oncogene tyrosine-protein kinase Src, sequence (P12931 2-536 limits assumed): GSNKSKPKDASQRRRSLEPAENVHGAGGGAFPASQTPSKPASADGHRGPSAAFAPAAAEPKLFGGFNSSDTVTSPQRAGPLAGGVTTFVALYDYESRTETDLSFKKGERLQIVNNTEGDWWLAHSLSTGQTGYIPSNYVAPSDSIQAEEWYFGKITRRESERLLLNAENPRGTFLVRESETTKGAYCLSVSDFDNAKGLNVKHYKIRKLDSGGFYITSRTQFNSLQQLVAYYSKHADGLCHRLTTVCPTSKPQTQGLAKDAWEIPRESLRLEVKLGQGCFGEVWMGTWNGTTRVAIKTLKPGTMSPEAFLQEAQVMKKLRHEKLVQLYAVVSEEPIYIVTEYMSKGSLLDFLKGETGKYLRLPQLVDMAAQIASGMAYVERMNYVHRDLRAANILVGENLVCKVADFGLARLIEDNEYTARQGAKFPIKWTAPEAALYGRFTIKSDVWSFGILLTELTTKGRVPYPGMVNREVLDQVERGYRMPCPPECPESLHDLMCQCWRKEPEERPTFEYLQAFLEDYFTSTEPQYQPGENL

| IC50 | Compound |
| --- | --- |
| 4.2 nM | COc1cc(Nc2c(C#N)cnc3cc(-c4ccc(CN5CCCCC5)s4)ccc23)c(Cl)cc1Cl [4-[(2,4-dichloro-5-methoxyphenyl)amino]-7-[5-(piperidin-1-ylmethyl)thiophen-2-yl]quinoline-3-carbonitrile] |
| 2 nM | COc1cc(Nc2c(C#N)cnc3cc(-c4ccc(CN5CCC(O)CC5)s4)ccc23)c(Cl)cc1Cl [4-[(2,4-dichloro-5-methoxyphenyl)amino]-7-{5-[(4-hydroxypiperidin-1-yl)methyl]thiophen-2-yl}quinoline-3-carbonitrile] |
| 4.4 nM | COc1cc(Nc2c(C#N)cnc3cc(-c4ccc(CN5CCSCC5)s4)ccc23)c(Cl)cc1Cl [4-[(2,4-dichloro-5-methoxyphenyl)amino]-7-[5-(thiomorpholin-4-ylmethyl)thiophen-2-yl]quinoline-3-carbonitrile] |
